How the values were obtained:
Type in all cases: cell-based, human
IRF-1 [1] = experiment: TNF-alpha-induced IRF-1 RNA levels (Northern blot); details: for % INIHIBITION of TNF-alpha-induced IRF-1 RNA levels: mean ± SD
Procedure: (§1) Cell culture and treatment of HAEC: Human aortic endothelial cells (HAEC; Cambrex Bio Science Walkersville, Inc., Walkersville, Md.) are cultured in M199 supplemented with 8% FBS, 100 μg/ml heparin, 10 ng/ml endothelial growth factor, 100 μg/ml hypothalamus extract, 2 mM L-glutamine, 1% non-essential amino acids, 100 units/ml penicillin and 100 μg/ml streptomycin. HAEC are subcultured on gelatin pre-coated: 96-well tissue culture plates (Corning Incorporated; Corning, N.Y.) for viability assays and ELISA; 100-mm tissue culture dishes (BD Falcon; Franklin Lakes, N.J.) for Northern blot analyses, Western blot analyses and EMSA; 35-mm tissue culture dishes (Corning) for adhesion assays and on 24-well tissue culture plates for luciferase promoter assays (BD Falcon). All experiments are performed with confluent HAEC monolayers. Unless noted otherwise, HAEC are treated with 25 ng/ml TNF-α, in the absence or presence of C-10 or 0.25% DMSO (carrier control for C-10), for 2-24 hrs. The concentration of DMSO is held constant at 0.25% (unless indicated otherwise) for all of the C-10 conditions.
HAEC are washed with PBS and total RNA extracted using a commercial kit (RNeasy Mini Kit; Qiagen Inc.; Valencia, Calif.). 12 μg of total RNA per lane is resolved on 1% denaturing agarose gels containing 0.66M formaldehyde. Gels are capillary blotted on Nytran membranes (Schleicher and Schuell Inc.; Keene, N.H.), UV cross-linked, and used for hybridization. The probe for IRF-1 has been previously described (33). The G3PDH cDNA is from Clontech (Palo Alto, Calif.). […]; cDNAs are labeled with α-^32P-dCTP using the Ladderman Labeling Kit (Takara Biochemical Inc.; Berkeley, Calif.) (33). Northern blots are developed using a BAS 1500 Bioimaging Analyzer (Fuji Photo Film Co., Ltd. Medical Systems USA Inc.; Stanford, Calif.). Each experiment is replicated at least twice.

IRF-1 [2] = experiment: TNF-alpha-induced IRF-1 protein levels (Western blot)
Procedure: as §1
Western blot analysis: Whole cell lysates are prepared in lysis buffer (150 mM NaCl, 1% IGEPAL CA-630, 50 mM Tris-HCL pH 8.0). 20 μg of lysates are then resolved on 4-12% Bis-Tris PAGE gels under denaturing conditions using the NuPAGE Bis-Tris System (Invitrogen; Carlsbad, Calif.). Proteins are transferred to nitrocellulose membranes, which are probed with IRF-1 antibody. Subsequent binding of HRP conjugated goat anti-rabbit Ab (sc-2054, Santa Cruz Biotechnology, Inc.) is detected using Lumigen PS-3 detection reagents (Amersham Pharmacia Biotech.; Piscataway, N.J.).

VCAM-1 = experiment: ELISA of TNF-α induced VCAM-1 protein on HAEC
Procedure: as §1
(§2) HAEC are washed with cold HBSS+, fixed in 1% formaldehyde at 4° C. for 20 min., washed with cold HBSS+, and incubated in cold M199 containing 8% FBS. Unless otherwise noted, from this point on all antibody dilutions and washes are carried out with M199 containing 8% FBS. Murine mAbs (primary mAbs) to ECAMs are added (10 μg/ml) and the HAEC incubated at 4° C. for 20 min. Following the incubation, the wells are washed and a peroxidase conjugated polyclonal (secondary) antibody to mouse IgG is added (diluted 1:50). After a 20 min. incubation at 4° C., the wells are washed and treated with OPD dissolved in phosphate citrate buffer containing sodium perborate. Following a 10 min. incubation at room temperature, the absorbance of the fluid in each well is determined at 450 nm using a micro-well plate spectrophotometer (Molecular Devices; Sunnyvale, Calif.). In every experiment, each condition is run in triplicate wells.

E-selectin [3] = experiment: ELISA of TNF-α induced E-selectin protein on HAEC
Procedure: as §1, §2

ICAM-1 = experiment: ELISA of TNF-α induced ICAM-1 protein on HAEC
Procedure: as §1, with “The concentration of DMSO is held constant at 0.25% (unless indicated otherwise) for all of the C-10 conditions.” left out
HAEC are washed with cold HBSS+, fixed in 1% formaldehyde at 4° C. for 20 min., washed with cold HBSS+, and incubated in cold M199 containing 8% FBS. […] Following a 10 min. incubation at room temperature, the absorbance of the fluid in each well is determined at 450 nm using a micro-well plate spectrophotometer (Molecular Devices; Sunnyvale, Calif.). […]

E-selectin [4] = experiment: TNF-α induced E-selectin mRNA in HAEC (Northern blot)
Procedure: as §1
HAEC are washed with PBS and total RNA extracted using a commercial kit (RNeasy Mini Kit; Qiagen Inc.; Valencia, Calif.). 12 μg of total RNA per lane is resolved on 1% denaturing agarose gels containing 0.66M formaldehyde. […]

HAEC = HAEC viability (MTS assay and visual inspection); details: concentrations used in this study
Procedure: as §1

Cn1c(-c2ccccc2)cnc1S [5-Phenylmethimazole]
effect on TNF-α induced IRF-1 mRNA expression in HAEC (IRF-1 [1]; 0.5 mM or 1 mM, 2 hr. TNF-α): reduces | % INIHIBITION of TNF-alpha-induced IRF-1 RNA levels (IRF-1 [1]; 5 mM): 95 ± 15% | % INIHIBITION of TNF-alpha-induced IRF-1 RNA levels (IRF-1 [1]; 10 :M): 65 ± 16% | % INIHIBITION of TNF-alpha-induced IRF-1 RNA levels (IRF-1 [1]; 100 :M): 90 ± 17% | effect on TNF-α induced IRF-1 protein expression (IRF-1 [2]; 0.5 mM or 1 mM, 2 hr. TNF-α, HAEC): reduced | % INHIBITION of TNF-alpha-induced IRF-1 Protein levels (IRF-1 [2]; 10 :M, mean ± SD): 76 ± 12% | inhibition at 5000 µM (IRF-1 [2]; Homo sapiens, 5 mM, mean ± SD): 95 ± 5% | concentration at which significant reduction of TNF-α induced VCAM-1 protein expression is observed (VCAM-1; 4 hr. TNF-α): ≥ 0.25 mM | effect on TNF-α induced protein expression of VCAM-1 (VCAM-1; 4 hr. TNF-α): significantly reduces | concentration at which significant reduction of TNF-α induced VCAM-1 protein expression is observed (VCAM-1; 24 hr. TNF-α): ≥ 0.05 mM | effect on TNF-α induced protein expression of VCAM-1 (VCAM-1; 24 hr. TNF-α): significantly reduces | effect on TNF-α induced protein expression of E-selectin (E-selectin [3]; 4 hr. TNF-α): little to no effect | concentration at which significant reduction of TNF-α induced E-selectin protein expression is observed (E-selectin [3]; 24 hr. TNF-α): ≥ 0.05 mM | effect on TNF-α induced protein expression of E-selectin (E-selectin [3]; 24 hr. TNF-α): significantly reduces | effect on TNF-α induced protein expression of ICAM-1 (ICAM-1; 4 hr. TNF-α): little to no effect | effect on TNF-α induced protein expression of ICAM-1 (ICAM-1; 24 hr. TNF-α): no effect | effect on TNF-α induced E-selectin mRNA expression (E-selectin [4]; 2 hr. TNF-α): marginal effect | effect on TNF-α induced E-selectin mRNA (E-selectin [4]; 24 hr. TNF-α): reduced, in a dose dependent manner | effect on HAEC viability (HAEC): little to no effect

Source: patent publication US20050209295A1, “Methimazole derivatives and tautomeric cyclic thiones to inhibit cell adhesion” (priority 2004, published 2005)
